{
  "source": "the supplement of paper PMC11208160",
  "data": [
    {"experiment": "recombinant UMI read abundance after kanamycin selection (control-corrected) (log10(CPM+1)); higher = more efficient recombination; extreme values may be limits of the assay; sequences stand for … in AGTGCAGAGAAAATCGGCCAGTTTTCTCTGCCTGCAGTCCGCATGCCGTGGGACCCCTTGGGTTCTAACCTGTTGCCTAGATTTATGCAGCGGACTGCCTTTCTCCCAAAGTGATAAACCGG…AGGTTGGTTTCACT; site = the 11-nt donor", "method_in_brief": "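Two replicates each of selected and unselected plating were used in this pooled Escherichia coli screen of donor and donor-binding-loop pairs for the IS621 bridge recombinase. Selection was with IPTG (0.07 mM) and kanamycin. Counts of recombinant UMIs, amplified across the donor–target junction, were converted to CPM, averaged, scaled by control-derived factors and reported as log10(CPM+1).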", "values": [
      {"sequence": "CACTTGGCATGGACCGGTTTTCCCGGTAATCCGTATTTGTA (site CACTTGGCTTG)", "recombinant UMI read abundance (log10)": 1.47},
      {"sequence": "AGAAAGGCATGGACCGGTTTTCCCGGTAATCCGTATTTGTT (site AGAAAGGCTAG)", "recombinant UMI read abundance (log10)": 1.47},
      {"sequence": "CGATAGACATGGACCGGTTTTCCCGGTAATCCGTATTTGCC (site AGATAGACTGG)", "recombinant UMI read abundance (log10)": 0},
      {"sequence": "TCAGAGACATGGACCGGTTTTCCCGGTAATCCGTATTTGCG (site TCAGCGACTCG)", "recombinant UMI read abundance (log10)": 0.00351},
      {"sequence": "CAAGCAGCATGGACCGGTTTTCCCGGTAATCCGTATTTGCG (site CAAGCAGCTCG)", "recombinant UMI read abundance (log10)": 1.81},
      {"sequence": "CGTGTCGCATGGACCGGTTTTCCCGGTAATCCGTATTTGTG (site CGTGTCGCTCA)", "recombinant UMI read abundance (log10)": 0.701},
      {"sequence": "AAGGGGTCATGGACCGGTTTTCCCGGTAATCCGTATTTGAT (site AAGGGGTCTAT)", "recombinant UMI read abundance (log10)": 2.94},
      {"sequence": "GGACACCCATGGACCGGTTTTCCCGGTAATCCGTATTTGTT (site GGTCACCCTAA)", "recombinant UMI read abundance (log10)": 0.00995},
      {"sequence": "CTTCTCGCATGGACCGGTTTTCCCGGTAATCCGTATTTGTA (site CTTCTCCCTTA)", "recombinant UMI read abundance (log10)": 0.0264},
      {"sequence": "ACACGAACATGGACCGGTTTTCCCGGTAATCCGTATTTGTT (site ACACGAACTGA)", "recombinant UMI read abundance (log10)": 1.96},
      {"sequence": "ATCAAAGCATGGACCGGTTTTCCCGGTAATCCGTATTTGAG (site ATCGAAGCTCT)", "recombinant UMI read abundance (log10)": 0.781},
      {"sequence": "GCAGTGGCATGGACCGGTTTTCCCGGTAATCCGTATTTGGT (site GGAGTGGCTAC)", "recombinant UMI read abundance (log10)": 0.276},
      {"sequence": "CGGATGACATGGACCGGTTTTCCCGGTAATCCGTATTTGCA (site CGGATGACTTG)", "recombinant UMI read abundance (log10)": 2.89},
      {"sequence": "CGAGGACCATGGACCGGTTTTCCCGGTAATCCGTATTTGAG (site CGAGGACCTCT)", "recombinant UMI read abundance (log10)": 0.00302},
      {"sequence": "CTTGTTCCATGGACCGGTTTTCCCGGTAATCCGTATTTGGT (site TTTGTTCCTAC)", "recombinant UMI read abundance (log10)": 0.0168},
      {"sequence": "CGAGGATCATGGACCGGTTTTCCCGGTAATCCGTATTTGAC (site CGAGGATCTGT)", "recombinant UMI read abundance (log10)": 2.99},
      {"sequence": "GCCGCGCCATGGACCGGTTTTCCCGGTAATCCGTATTTGGG (site GCCGCGCCTCC)", "recombinant UMI read abundance (log10)": 0.0148},
      {"sequence": "CTTCTCTCATGGACCGGTTTTCCCGGTAATCCGTATTTGGA (site CTTCTCTCTTA)", "recombinant UMI read abundance (log10)": 0.0983},
      {"sequence": "TGACTGCCATGGACCGGTTTTCCCGGTAATCCGTATTTGAA (site TGACTGCCTTT)", "recombinant UMI read abundance (log10)": 0.0135},
      {"sequence": "AAGTTACCATGGACCGGTTTTCCCGGTAATCCGTATTTGAC (site AAGTTACCTGT)", "recombinant UMI read abundance (log10)": 0},
      {"sequence": "ATCCAAGCATGGACCGGTTTTCCCGGTAATCCGTATTTGAG (site TTCCAAGCTCT)", "recombinant UMI read abundance (log10)": 1.17},
      {"sequence": "AGAAAGTCATGGACCGGTTTTCCCGGTAATCCGTATTTGCA (site AGGAAGACTTG)", "recombinant UMI read abundance (log10)": 0},
      {"sequence": "TGCCGTTCATGGACCGGTTTTCCCGGTAATCCGTATTTGAT (site TGCCGTTCTAT)", "recombinant UMI read abundance (log10)": 0},
      {"sequence": "CCTCATACATGGACCGGTTTTCCCGGTAATCCGTATTTGGC (site CCTGATACTGC)", "recombinant UMI read abundance (log10)": 0},
      {"sequence": "TCAGAGGCATGGACCGGTTTTCCCGGTAATCCGTATTTGCG (site TCAGAGGCTCG)", "recombinant UMI read abundance (log10)": 1.26},
      {"sequence": "TAGCTAGCATGGACCGGTTTTCCCGGTAATCCGTATTTGAC (site TAGCTAGCTCT)", "recombinant UMI read abundance (log10)": 0},
      {"sequence": "CTCCCCACATGGACCGGTTTTCCCGGTAATCCGTATTTGAG (site CTCCCGACTCT)", "recombinant UMI read abundance (log10)": 0.0121},
      {"sequence": "TCAGTATCATGGACCGGTTTTCCCGGTAATCCGTATTTGCA (site CCAGTATCTTG)", "recombinant UMI read abundance (log10)": 2.06},
      {"sequence": "GATCCGTCATGGACCGGTTTTCCCGGTAATCCGTATTTGCG (site GATCCGTCTCG)", "recombinant UMI read abundance (log10)": 0.274},
      {"sequence": "AGCTCAGCATGGACCGGTTTTCCCGGTAATCCGTATTTGGT (site AGCTCAGCTGC)", "recombinant UMI read abundance (log10)": 0},
      {"sequence": "CTAGTCCCATGGACCGGTTTTCCCGGTAATCCGTATTTGCT (site CTAGTCCCTAG)", "recombinant UMI read abundance (log10)": 1.79},
      {"sequence": "AGAGTTACATGGACCGGTTTTCCCGGTAATCCGTATTTGGC (site AGAGTTACTGC)", "recombinant UMI read abundance (log10)": 2.43},
      {"sequence": "AGCTTCCCATGGACCGGTTTTCCCGGTAATCCGTATTTGTG (site AGATTCCCTCA)", "recombinant UMI read abundance (log10)": 0.114},
      {"sequence": "CGGGAACCATGGACCGGTTTTCCCGGTAATCCGTATTTGAT (site CGGGAAACTAT)", "recombinant UMI read abundance (log10)": 0},
      {"sequence": "CTGGAAACATGGACCGGTTTTCCCGGTAATCCGTATTTGCC (site CTGGAAACTTG)", "recombinant UMI read abundance (log10)": 0.22},
      {"sequence": "ATGTAAGCATGGACCGGTTTTCCCGGTAATCCGTATTTGGC (site ATGTAGGCTGC)", "recombinant UMI read abundance (log10)": 2.04},
      {"sequence": "CGAGTGCCATGGACCGGTTTTCCCGGTAATCCGTATTTGTT (site CGAGTGCCTAA)", "recombinant UMI read abundance (log10)": 0.52},
      {"sequence": "GCGGAGCCATGGACCGGTTTTCCCGGTAATCCGTATTTGGG (site GCGTAGCCTCC)", "recombinant UMI read abundance (log10)": 0.0221},
      {"sequence": "GCGGGTGCATGGACCGGTTTTCCCGGTAATCCGTATTTGTA (site GCGGGTGCTTA)", "recombinant UMI read abundance (log10)": 2.6},
      {"sequence": "GCTACTGCATGGACCGGTTTTCCCGGTAATCCGTATTTGCT (site GCTACTGCTTG)", "recombinant UMI read abundance (log10)": 0},
      {"sequence": "TCAGAGGCATGGACCGGTTTTCCCGGTAATCCGTATTTGCG (site TCAGAGACTCG)", "recombinant UMI read abundance (log10)": 0.431},
      {"sequence": "ATCCAAGCATGGACCGGTTTTCCCGGTAATCCGTATTTGAT (site ATCCAAGCTCT)", "recombinant UMI read abundance (log10)": 0.233},
      {"sequence": "CCTAGAGCATGGACCGGTTTTCCCGGTAATCCGTATTTGAT (site CCTAAAGCTAT)", "recombinant UMI read abundance (log10)": 0},
      {"sequence": "CTAGTATCATGGACCGGTTTTCCCGGTAATCCGTATTTGAC (site CTAGTAACTGT)", "recombinant UMI read abundance (log10)": 1.82},
      {"sequence": "CCTAAAGCATGGACCGGTTTTCCCGGTAATCCGTATTTGAT (site CCTAAAGCTTT)", "recombinant UMI read abundance (log10)": 0},
      {"sequence": "AGGAATTCATGGACCGGTTTTCCCGGTAATCCGTATTTGTT (site AGGAATTCTAA)", "recombinant UMI read abundance (log10)": 2.16},
      {"sequence": "ATGGAGACATGGACCGGTTTTCCCGGTAATCCGTATTTGTG (site ATGGAGACTCA)", "recombinant UMI read abundance (log10)": 1.96},
      {"sequence": "CACTTCTCATGGACCGGTTTTCCCGGTAATCCGTATTTGCC (site CACTCCTCTGG)", "recombinant UMI read abundance (log10)": 1.41},
      {"sequence": "TACCTACCATGGACCGGTTTTCCCGGTAATCCGTATTTGAG (site TACCTACCTCT)", "recombinant UMI read abundance (log10)": 0.0115},
      {"sequence": "CTAGTATCATGGACCGGTTTTCCCGGTAATCCGTATTTGAC (site CTAGGGTCTGT)", "recombinant UMI read abundance (log10)": 0},
      {"sequence": "CGCGAGCCATGGACCGGTTTTCCCGGTAATCCGTATTTGGA (site CGCGAGCCTTC)", "recombinant UMI read abundance (log10)": 0.181},
      {"sequence": "CTAGTATCATGGACCGGTTTTCCCGGTAATCCGTATTTGAC (site CAAATATCTGT)", "recombinant UMI read abundance (log10)": 0},
      {"sequence": "CACGTCCCATGGACCGGTTTTCCCGGTAATCCGTATTTGTT (site CACGCCCCTAA)", "recombinant UMI read abundance (log10)": 0.263},
      {"sequence": "CCTGACACATGGACCGGTTTTCCCGGTAATCCGTATTTGTC (site CCTGACACTGA)", "recombinant UMI read abundance (log10)": 0},
      {"sequence": "CACGGCGCATGGACCGGTTTTCCCGGTAATCCGTATTTGTT (site CACGGCGCTAA)", "recombinant UMI read abundance (log10)": 1.74},
      {"sequence": "ACCACGCCATGGACCGGTTTTCCCGGTAATCCGTATTTGTA (site CCCACGCCTTA)", "recombinant UMI read abundance (log10)": 0.143},
      {"sequence": "GTGAGAACATGGACCGGTTTTCCCGGTAATCCGTATTTGGC (site GTGAGAACTGC)", "recombinant UMI read abundance (log10)": 1.49}
    ]}
  ]
}
